Data set [1] relates to QTc interval. To be noted: therapeutic and supratherapeutic concentrations; cited from earlier work.
Data set [2] concerns healthy subjects. In words: 12-lead ECG by time-point and categorical outlier analysis in the TQT study. The data set is classed as in vivo, human.
The subject of data set [3] is healthy subjects. In words: Concentration-QTc. It is filed as in vivo, human. To be noted: for Predicted (90% CI) ΔΔQTcF at geometric mean peak concentration: PK/QTc population.
For data set [4], the system named is hERG channels. The data set is described as follows: In vitro hERG ion channel assay. It is filed as cell-based, human. To be noted: 160 mg twice daily. (hERG is a cardiac potassium channel; its block is linked to QT prolongation.)
Data set [5] has as its system healthy subjects. The data set is described as follows: Safety and tolerability. To be noted: for overall percentage of TEAEs: part B. The data set is classed as in vivo, human.
The conditions of data set [6]: cited from earlier work.
Data set [7] is described as follows: Plasma pharmacokinetics in the TQT study. To be noted: for Cmax: Geometric mean Cmax (90% CI), PK/QTc population.

Entries after “also recorded” stand apart in the source; their conditions may differ. A value given as a limit tells only on which side of the number the result lay.

What is called Cmax is the peak of the concentration-time curve. A word on the half-life: it is the time in which the quantity being followed falls by half. Read a high half-life as slow loss. As a reminder, the Tmax is the time from dosing to the highest level.

With `CC#CC(=O)N1CCC[C@H]1c1nc(-c2ccc(C(=O)Nc3ccccn3)cc2)c2c(N)nccn12` [acalabrutinib], in data set [1], the “effect on QTc interval” value is “not to prolong the QTc interval”.
With `C=CC(=O)N1CCC([C@@H]2CCNc3c(C(N)=O)c(-c4ccc(Oc5ccccc5)cc4)nn32)CC1` [Zanubrutinib], the “Mean placebo-corrected change from baseline heart rate (ΔΔHR), magnitude (±)” value in data set [2] (all postdose time points, 160 and 480 mg) is on record as less than 5 bpm. The “Mean ΔΔPR” value in data set [2] (all time points after dosing with zanubrutinib) was less than 5 ms. Also, the “upper bound of the 90% CI of ΔΔQTcF” value in data set [2] (any postdose time point, both zanubrutinib doses) is no more than 1.2 ms. Further, the “participants with HR outlier values” in data set [2] (categorical outlier analysis) is recorded as “no participant with HR outlier values”. The “participants with outlier QTcF values (> 450 msec)” value in data set [2] (categorical outlier analysis, zanubrutinib 160 and 480 mg) is given as “No participants had outlier QTcF values; also recorded: no participant had outlier values”. In addition, in data set [2] (categorical outlier analysis, zanubrutinib groups), the “participants with outlier ΔQTcF values (> 30 msec)” value is “No participant had outlier ΔQTcF values”. The “effect on QTc interval” value in data set [2] (single 160-mg or 480-mg dose) is given as “did not prolong the QTc interval”. Also, the “Predicted (90% CI) ΔΔQTcF at geometric mean peak concentration” value in data set [3] (160 mg, n = 27) was −3.16 (−4.51 to −1.81) msec; in data set [3] (480 mg, n = 28), −3.38 (−4.86 to −1.89) msec. In addition, the “exposure margin, hERG IC50 over clinical steady-state unbound Cmax” value in data set [4] is on record as ~ 217 fold. In addition, the “SAEs or grade 3 or higher AEs related to administration” value in data set [5] (part A, 480 mg single dose, n = 6) is reported as “no SAEs or grade 3 or higher AEs”. Besides, the “overall percentage of TEAEs” value in data set [5] (zanubrutinib 160 mg) stood at 10.0%; in data set [5] (zanubrutinib 480 mg), 13.3%. Also, in data set [6] (160 mg, patients with B-cell malignancy), the “mean Cmax” value is 0.346 µg/mL. The “mean terminal elimination half-life (t ½)” value in data set [6] (oral administration) is 2 to 4 h. Also, the “clinical steady-state unbound Cmax” value in data set [6] (recommended phase III dose of 160 mg twice daily, no reference given) was 0.042 µM. For the same molecule, the “highest observed plasma concentration in the TQT study” value in data set [7] (concentration range included in C-QTc modeling) was “≈ 800 ng/mL”. Also, the Cmax was 0.215 µg/mL in data set [7] (human, in vivo, 160 mg, n = 27) and 0.401 µg/mL in data set [7] (human, in vivo, 480 mg, n = 28). The molecule further returned a half-life in data set [7] (human, in vivo, 480 mg, mean t ½, 480-mg dose, range over part A and part B) of 8.1 to 11 h. Moreover, the Tmax in data set [7] (human, in vivo, 480 mg, median Tmax, range over part A and part B, 160 and 480 mg, postdose) is 1.5 to 2.8 h.
With `COc1c(N2C[C@@H]3CCCN[C@@H]3C2)c(F)cc2c(=O)c(C(=O)O)cn(C3CC3)c12` [Moxifloxacin, moxifloxacin, reference compound], the “peak effect, mean ΔΔQTcF” value in data set [2] (moxifloxacin 400 mg, at 2.5 hours postdose) came to 12.9 ms. Further, the “mean ΔΔQTcF” value in data set [2] (moxifloxacin 400 mg, between 1 and 4 hours postdose) is “above 10 msec”. Besides, in data set [3] (moxifloxacin), the “estimated population slope of the C-QTc relationship” value is given as 0.005 msec per ng/mL and the “intercept of the C-QTc relationship” value amounted to 3.1 ms. Also, in data set [5] (moxifloxacin 400 mg), the “overall percentage of TEAEs” value amounted to 22.2%.

Values taken from PMC7485941 (Clinical and Translational Science, 2020).
